Literature values, collected in article PMC11843658 (Journal of Enzyme Inhibition and Medicinal Chemistry, 2025).

System: Kasumi-1 xenograft
Parameters: method as in PMID 32551003
Settings: Kasumi-1 xenograft model of acute myeloid leukaemia; cited from earlier work

CC/C(=C\c1ccccc1)[C@@H]1C[C@H]1NC1CC2(C1)CN(CCO)C2 [Compound 5]
anticancer effects in xenograft model: potent anticancer effects
